Our source for the prothrombin time values is patent EP4737486A1, “HYALURONIC ACID DERIVATIVE, AND PREPARATION METHOD THEREFOR AND USE THEREOF” (priority 2023, dated 2025).

The subject of the data set is blood. In words: Anticoagulant activity by prothrombin time in rat blood (CoaguChek X). Details: species or system male SD rats. The following applies: 278 µg/mL in rat blood, n = 3; versus normal saline and no-addition groups. The protocol:
The anticoagulant activity of the compound was assessed by measuring prothrombin time according to the reference [Sulakshan Sulakshana et al., Anesth Essays Res., 2021, 15(4): 341-347].
The experimental method and steps are as follows: • 1) About 2 mL of blood was obtained from the abdominal aorta of male SD rats (8 weeks old). One sample corresponded to one rat, and n = 3. • 2) Each substance was added to the blood at a concentration of 27.8 µg/mL or 278 µg/mL, and mixing was performed (generally, 27.8 µg/mL was used for transfusion). • 3) To assess the anticoagulant effect of the samples, prothrombin time was measured using CoaguChek X (Sekisui Medical).
• 1) Normal saline; • 2) Unfractionated heparin (UFH), sodium heparin injection 5000 units/5 mL, Mochida (average molecular weight: 15000); • 3) Fragmin: low molecular weight heparin, average molecular weight of 5000, 5000 units/5 mL; • 4) Arixtra: […], average molecular weight of 1728 (5 mers), 5000 units/5 mL; • 5) No addition.

As to `CO[C@H]1O[C@H](COS(=O)(=O)O)[C@@H](O[C@@H]2O[C@@H](C(=O)O)[C@@H](O[C@H]3O[C@H](COS(=O)(=O)O)[C@@H](O[C@@H]4O[C@H](C(=O)O)[C@@H](O[C@H]5O[C@H](COS(=O)(=O)O)[C@@H](O)[C@H](O)[C@H]5NS(=O)(=O)O)[C@H](O)[C@H]4O)[C@H](OS(=O)(=O)O)[C@H]3NS(=O)(=O)O)[C@H](O)[C@H]2OS(=O)(=O)O)[C@H](O)[C@H]1NS(=O)(=O)O` [Arixtra], the prothrombin time result was “significantly longer”.
